We go through 53 molecules from US7429599B2, “Methods for treating or preventing an inflammatory or metabolic condition or inhibiting JNK” (Signal Pharmaceuticals, LLC, priority 2000, dated 2008).

Usually IC50 stands for the midpoint of a concentration-inhibition curve.

The target of this experiment is T1, His6-JNK2 (Homo sapiens, UniProt P45984).
T1 construct: His6 (N)
T1 sequence (P45984 whole entry): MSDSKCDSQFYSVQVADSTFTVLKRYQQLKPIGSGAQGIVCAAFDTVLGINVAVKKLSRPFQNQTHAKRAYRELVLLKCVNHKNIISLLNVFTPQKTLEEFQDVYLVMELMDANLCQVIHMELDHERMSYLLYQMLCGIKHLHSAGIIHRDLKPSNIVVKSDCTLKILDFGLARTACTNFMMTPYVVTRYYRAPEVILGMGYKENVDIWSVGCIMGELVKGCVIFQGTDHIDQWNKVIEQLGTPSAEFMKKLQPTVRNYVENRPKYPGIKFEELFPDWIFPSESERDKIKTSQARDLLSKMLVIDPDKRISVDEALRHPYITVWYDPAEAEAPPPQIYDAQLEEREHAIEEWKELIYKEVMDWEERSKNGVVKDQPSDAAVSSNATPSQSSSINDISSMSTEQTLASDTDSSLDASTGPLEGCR
The experiment is described as follows: JNK2 Assay (c-Jun phosphorylation, 32P-ATP filter plate). The following applies: c-Jun phosphorylation reduced to 50% of control; GST-c-Jun(1-79), 11 μM ATP; read-out: IC50 value in the JNK2 Assay. The format is biochemical. The method, then: To 10 μL of the test compound in 20%/DMSO/80% dilutien buffer consisting of 20 mM HELPS (pH 7.6), 0.1 mM; EDTA, 2.5 mM magnesium chloride, 0.004% Triton×100, 2 μg/mL leupeptin, 20 mM β-glycerolphosphate, 0.1 mM sodium vanadate, and 2 mM DTT in water is added 30 μL of 50 ng His6-JNK2 in the same dilution buffer. The mixture is preincubated for 30 minutes at room temperature. Sixty microliter of 10 μg GST-c-Jun(1-79) in assay buffer consisting of 20 mM HEPES (pH 7.6), 50 mM sodium chloride, 0.1 mM EDTA, 24 mM magnesium chloride, 1 mM DTT, 25 mM PNPP, 0.05% Triton×100, 11 μM ATP, and 0.5 μCi γ-^32P ATP in water is added and the reaction is allowed to proceed for 1 hour at room temperature. The c-Jun phosphorylation is terminated by addition of 150 μL of 12.5% trichloroacetic acid. After 30 minutes, the precipitate is harvested onto a filter plate, diluted with 50 μL of the scintillation fluid and quantified by a counter. The IC50 values are calculated as the concentration of the test compound at which the c-Jun phosphorylation is reduced to 50% of the control value.
For `NC(=O)c1ccc(Nc2nccc(-c3ccc(Cl)cc3)n2)cc1` [Compound 1, 4-{[4-(4-Chlorophenyl)pyrimidin-2-yl]amino}benzamide], the IC50 was no more than 10 µM.

Take `NC(=O)c1ccc(Nc2nccc(-c3cccs3)n2)cc1` [Compound 3-2]: the 50% inhibitory concentration (IC50) is no more than 1 µM.

For `NC(=O)c1ccc(Nc2nccc(-c3ccccc3)n2)cc1` [Compound 3-4], the IC50 is no more than 1 µM.

As for `NC(=O)c1ccc(Nc2nccc(-c3ccc(S(=O)(=O)c4ccccn4)cc3)n2)cc1` [Compound 3-9], the IC50 is no more than 1 µM.

Take `NC(=O)c1ccc(Nc2nccc(-c3ccc(SCCCN4CCOCC4)cc3)n2)cc1` [Compound 3-10]: the IC50 was no more than 10 µM.

As for `CN(C)CCCSc1ccc(-c2ccnc(Nc3ccc(C(N)=O)cc3)n2)cc1` [Compound 3-11], the IC50 is no more than 10 µM.

Take `CN1CCN(CCCSc2ccc(-c3ccnc(Nc4ccc(C(N)=O)cc4)n3)cc2)CC1` [Compound 3-12]: the concentration for half-maximal inhibition (IC50) was no more than 10 µM.

With `NC(=O)c1ccc(Nc2nccc(-c3ccc(S(=O)(=O)c4cccnc4)cc3)n2)cc1` [Compound 3-13], the IC50 was no more than 1 µM.

For `NC(=O)c1ccc(Nc2nccc(-c3ccc(SCCCO)cc3)n2)cc1` [Compound 3-14], the IC50 was no more than 1 µM.

With `NC(=O)c1ccc(Nc2nccc(-c3ccc(S(=O)(=O)CCCO)cc3)n2)cc1` [Compound 3-15], the IC50 was no more than 1 µM.

Take `CN1CCC(S(=O)(=O)c2ccc(-c3ccnc(Nc4ccc(C(N)=O)cc4)n3)cc2)CC1` [Compound 3-16]: the 50% inhibitory concentration (IC50) was no more than 10 µM.

For the molecule `CN1CCN(S(=O)(=O)c2ccc(-c3ccnc(Nc4ccc(C(N)=O)cc4)n3)cc2)CC1` [Compound 3-17], the concentration for half-maximal inhibition (IC50) was no more than 10 µM.

As for `NC(=O)c1ccc(Nc2nccc(-c3ccc(Br)cc3)n2)cc1` [Compound 3-22], the IC50 was no more than 10 µM.

Turning to `CCOc1ccc(-c2ccnc(Nc3ccc(C(N)=O)cc3)n2)cn1` [Compound 3-23], the IC50 was no more than 1 µM.

Regarding `COc1ccc(-c2ccnc(Nc3ccc(C(N)=O)cc3)n2)cn1` [Compound 3-24], the IC50 was no more than 1 µM.

Consider `CN(C)c1ccc(-c2ccnc(Nc3ccc(C(N)=O)cc3)n2)cn1` [Compound 3-25], for which the IC50 was no more than 1 µM.

For the molecule `NC(=O)c1ccc(Nc2nccc(-c3ccc(N4CCCCC4)cc3)n2)cc1` [Compound 3-26], the IC50 is no more than 10 µM.

Turning to `NC(=O)c1ccc(Nc2nccc(-c3ccc([N+](=O)[O-])cc3)n2)cc1` [Compound 3-27], the IC50 is no more than 10 µM.

Consider `CN(C)c1ccc(-c2ccnc(Nc3ccc(C(N)=O)cc3)n2)cc1` [Compound 3-29], for which the IC50 was no more than 10 µM.

As to `NC(=O)c1ccc(Nc2nccc(-c3ccc(N4CCOCC4)cc3)n2)cc1` [Compound 3-30], the IC50 is no more than 10 µM.

Take `NC(=O)c1ccc(Nc2nccc(-c3ccc4ccccc4c3)n2)cc1` [Compound 3-34]: the concentration for half-maximal inhibition (IC50) was no more than 10 µM.

For `NC(=O)c1ccc(Nc2nccc(-c3ccc(-n4ccnc4)cc3)n2)cc1` [Compound 3-36], the IC50 is no more than 10 µM.

For `Cc1cnc(Nc2ccc(C(N)=O)cc2)nc1-c1ccc(Cl)cc1` [Compound 3-37], the IC50 is no more than 10 µM.

Turning to `NC(=O)c1ccc(Nc2nccc(-c3ccc(C(=O)O)cc3)n2)cc1` [Compound 3-40], the IC50 is no more than 1 µM.

Consider `CN(C)C(=O)c1ccc(Nc2nccc(-c3ccc(Cl)cc3)n2)cc1` [Compound 17-2], for which the IC50 was no more than 10 µM.

With `CNC(=O)c1ccc(Nc2nccc(-c3ccc(Cl)cc3)n2)cc1` [Compound 17-3], the concentration for half-maximal inhibition (IC50) was no more than 10 µM.

In the case of `CN(C)C(=O)c1ccc(Nc2nccc(-c3ccc(Br)cc3)n2)cc1` [Compound 17-18], the IC50 is no more than 10 µM.

Turning to `O=C(c1ccc(Nc2nccc(-c3ccc(Cl)cc3)n2)cc1)N1CCC(O)CC1` [Compound 17-20], the 50% inhibitory concentration (IC50) is no more than 1 µM.

Turning to `O=C(NCCCn1ccnc1)c1ccc(Nc2nccc(-c3ccc(Cl)cc3)n2)cc1` [Compound 17-21], the IC50 was no more than 1 µM.

Consider `CC(=O)NCCNC(=O)c1ccc(Nc2nccc(-c3ccc(Cl)cc3)n2)cc1` [Compound 17-22], for which the IC50 is no more than 1 µM.

For the molecule `O=C(NCCCN1CCCCC1)c1ccc(Nc2nccc(-c3ccc(Cl)cc3)n2)cc1` [Compound 17-23], the IC50 is no more than 10 µM.

Regarding `COCCNC(=O)c1ccc(Nc2nccc(-c3ccc(Cl)cc3)n2)cc1` [Compound 17-24], the IC50 was no more than 1 µM.

In the case of `O=C(NCCCO)c1ccc(Nc2nccc(-c3ccc(Cl)cc3)n2)cc1` [Compound 17-25], the 50% inhibitory concentration (IC50) was no more than 10 µM.

As to `CC(O)CNC(=O)c1ccc(Nc2nccc(-c3ccc(Cl)cc3)n2)cc1` (centres unmarked) [Compound 17-26], the IC50 was no more than 10 µM.

On to `O=C(c1ccc(Nc2nccc(-c3ccc(Cl)cc3)n2)cc1)N1CCC[C@@H]1CO` [Compound 17-27], for which the IC50 was no more than 10 µM.

With `O=C(c1ccc(Nc2nccc(-c3ccc(Cl)cc3)n2)cc1)N1CCC(O)C1` (centres unmarked) [Compound 17-28], the half-maximal inhibitory concentration (IC50) is no more than 10 µM.

On to `CC(=O)N1CCN(C(=O)c2ccc(Nc3nccc(-c4ccc(S(=O)(=O)c5ccncc5)cc4)n3)cc2)CC1` [Compound 17-29], for which the 50% inhibitory concentration (IC50) was no more than 1 µM.

Turning to `O=C(c1ccc(Nc2nccc(-c3ccc(S(=O)(=O)c4ccncc4)cc3)n2)cc1)N1CCN(C(=O)c2ccco2)CC1` [Compound 17-30], the IC50 is no more than 1 µM.

On to `CN(C)C(=O)c1ccc(Nc2nccc(-c3ccc(SCCCO)cc3)n2)cc1` [Compound 17-31], for which the IC50 was no more than 1 µM.

Consider `CC(C)NC(=O)CN1CCN(C(=O)c2ccc(Nc3nccc(-c4ccc(SCCCO)cc4)n3)cc2)CC1` [Compound 17-32], for which the IC50 is no more than 1 µM.

For `CC(=O)N1CCN(C(=O)c2ccc(Nc3nccc(-c4ccc(SCCCO)cc4)n3)cc2)CC1` [Compound 17-33], the IC50 was no more than 1 µM.

For the molecule `O=C(c1ccc(Nc2nccc(-c3ccc(SCCCO)cc3)n2)cc1)N1CCN(C(=O)c2ccco2)CC1` [Compound 17-34], the IC50 was no more than 1 µM.

Turning to `CCN1CCN(C(=O)c2ccc(Nc3nccc(-c4ccc(Cl)cc4)n3)cc2)CC1` [Compound 17-35], the 50% inhibitory concentration (IC50) is no more than 10 µM.

`CCC(=O)N1CCN(C(=O)c2ccc(Nc3nccc(-c4ccc(Cl)cc4)n3)cc2)CC1` [Compound 17-37]: the IC50 was no more than 1 µM.

For the molecule `O=C(NCCCN1CCCC1=O)c1ccc(Nc2nccc(-c3ccc(Cl)cc3)n2)cc1` [Compound 17-54], the IC50 is no more than 10 µM.

Regarding `O=C(NCCCN1CCOCC1)c1ccc(Nc2nccc(-c3ccc(Cl)cc3)n2)cc1` [Compound 17-86], the IC50 is no more than 10 µM.

As to `COC(=O)CNC(=O)c1ccc(Nc2nccc(-c3ccc(Cl)cc3)n2)cc1` [Compound 17-91], the IC50 is no more than 10 µM.

As to `O=C(NCCCCO)c1ccc(Nc2nccc(-c3ccc(Cl)cc3)n2)cc1` [Compound 17-106], the IC50 was no more than 10 µM.

On to `O=C(NCCc1ccccn1)c1ccc(Nc2nccc(-c3ccc(Cl)cc3)n2)cc1` [Compound 17-118], for which the IC50 was no more than 10 µM.

On to `O=C(Nc1ccc2[nH]ncc2c1)c1ccc(Nc2nccc(-c3ccc(Cl)cc3)n2)cc1` [Compound 17-119], for which the IC50 was no more than 10 µM.

With `O=C(Nc1nc2ccccc2[nH]1)c1ccc(Nc2nccc(-c3ccc(Cl)cc3)n2)cc1` [Compound 17-121], the IC50 was no more than 10 µM.

On to `CN1CCN(C(=O)c2ccc(Nc3nccc(-c4ccc(Cl)cc4)n3)cc2)CC1` [Compound 17-127], for which the IC50 was no more than 1 µM.

`O=C(c1ccc(Nc2nccc(-c3ccc(Cl)cc3)n2)cc1)N1CCN(Cc2ccc3c(c2)OCO3)CC1` [Compound 17-128]: the IC50 is no more than 10 µM.
